Values of other authors as cited in publication PMC11577316, “Tuning the Properties of Rigidified Acyclic DEDPA^2– Derivatives for Application in PET Using Copper-64” (Inorganic Chemistry, 2024).
Where two headings read alike, the source gives them in different places. Marks after values point to notes of the source that are not given here. Each block holds one molecule with its values, some of them ahead of it.

Assays:
[1] = not given; remark: listed apart in the source
[2] = parameters: method as in PMID 22583103; conditions: vs Ag/AgCl ref 28
[3] = not given; remark: listed apart in the source

log K1^H (0.1 M (Me4N)(NO3) ref 25): 8.69
log K2^H (0.1 M (Me4N)(NO3) ref 25): 6.18
log K3^H (0.1 M (Me4N)(NO3) ref 25): 3.08
log K4^H (0.1 M (Me4N)(NO3) ref 25): 2.33
log K1^H (0.15 M NaCl ref 26): 9.00
log K2^H (0.15 M NaCl ref 26): 6.30
log K3^H (0.15 M NaCl ref 26): 3.06
log K4^H (0.15 M NaCl ref 26): 2.59
log KCuL ([1]; Cu(II) complex, 0.15 M NaCl ref 28): 19.16 ^d
pCu ([1]; –log [Cu(II)]free, [L]tot = 10 μM, [Cu(II)]tot = 1 μM, column footnote c: 0.15 M NaCl ref 26): 18.5
Compound: O=C(O)c1cccc(CNCCNCc2cccc(C(=O)O)n2)n1 [DEDPA^2–, 6,6′-((ethane-1,2-diylbis(azanediyl))bis(methylene))dipicolinic acid]

irreversible reduction peak [2]: −1.12 V
Compound: O=C([O-])c1cccc(CNCCNCc2cccc(C(=O)[O-])n2)n1.[Cu+2] [[Cu(DEDPA)]]

stability in serum [3]: poor stability in serum
Compound: O=C([O-])c1cccc(CNCCNCc2cccc(C(=O)[O-])n2)n1.[64Cu+2] [[^64Cu(DEDPA)]]
